Publication PMC11239830, “Synthetic macrolides overcoming MLSBK-resistant pathogens” (Cell Discovery, 2024)
In brackets after ≈: the same amount, converted by molar mass. Like-named read-outs stand apart in the source and are kept apart here. Each block holds one compound with its values, some of them ahead of it.

Key:
S. pyogenes = experiment: MIC, broth microdilution; assay type: cell-based, Streptococcus pyogenes
How it was run: (§1)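 Incubation ran for 16–20 h at 37 °C after setup per Clinical and Laboratory Standards Institute microdilution procedure. Growth was then observed to assign the MIC. Assays were replicated at least three times.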

H. influenzae = experiment: MIC, broth microdilution; assay type: cell-based, Haemophilus influenzae; details: Haemophilus influenzae, ATCC49247, H. influenzae ATCC49247, Azi-S; read-out: MIC
How it was run: as §1

M. catarrhalis = experiment: MIC, broth microdilution; assay type: cell-based, Moraxella catarrhalis; details: Moraxella catarrhalis; M. catarrhalis 13L332, Ery-S; read-out: MIC
Procedure: MICs were determined by the microdilution method according to the Clinical and Laboratory Standards Institute guidelines. Briefly, the stock solution of compounds and the reference antibiotics were diluted 2-fold in sterile 96-well plates with cation-adjusted Mueller-Hinton broth, and mixed with CAMHB-containing bacteria to give a final inoculum of 5 × 10^5 CFU/mL for broth microdilution experiments. […] Finally, the 96-well plates were incubated at 37 °C for 16–20 h to observe and record the results. The lowest concentration at which no bacterial growth could be observed visually was identified as the MICs of the compounds. The assay for MICs was replicated at least three times.

S. aureus = experiment: MIC, broth microdilution; assay type: cell-based, Staphylococcus aureus
Procedure: MICs were determined by the microdilution method according to the Clinical and Laboratory Standards Institute guidelines. […] Finally, the 96-well plates were incubated at 37 °C for 16–20 h to observe and record the results. […] The assay for MICs was replicated at least three times.

S. pneumoniae = experiment: MIC, broth microdilution; assay type: cell-based, Streptococcus pneumoniae
How it was run: as §1

[1] = In vivo pharmacokinetic study; set-up: species or system SD rats; details: SD (Sprague-Dawley), rat, iv, plasma
Procedure: The SD rats were fasted overnight and dosed i.v. at a dose of 5 mg/kg in a solution of DMSO/PEG 400/water (5%/24%/71%). The whole blood was collected into tubes containing sodium heparin at 0.083 h, 0.25 h, 0.5 h, 1 h, 2 h, 4 h, 8 h and 24 h after dosing. After centrifugation of 6000 rpm for 10 min at 4 °C, plasma samples were transferred into 1.5 mL tubes and stored at –20 °C. Prior to analysis, the samples were thawed on ice. An amount of 50 μL of each plasma sample was added to a mixture of 50 μL of propranolol (300 ng/mL) and 100 μL of acetonitrile and centrifuged at 12,000 rpm at 4 °C for 10 min. The supernatant was diluted and analyzed by LC-MS/MS. The liquid chromatography was conducted on a Thermo Scientific Q Exactive HF-X (ThermoFisher Scientific, USA) instrument, employing an ACQUITY UPLC BEH C18 Column with dimensions of 130 Å, 1.7 µm, 2.1 mm × 100 mm. The liquid phase method employed gradient elution with mobile phases consisting of acetonitrile and an 0.1% aqueous formic acid solution. Mass spectrometry was conducted in positive ion mode. The quantification of drug concentration in plasma samples was performed using the internal standard method, and the obtained pharmacokinetic parameters were calculated using Phoenix WinNonlin software.

[2] = Streptococcus pneumoniae, S. pneumoniae PU09, mef, read-out: MIC
[3] = Streptococcus pyogenes, S. pyogenes 12-206, c-ermTR, read-out: MIC
[4] = Streptococcus pneumoniae, ATCC49619, S. pneumoniae ATCC49619, Ery-S, read-out: MIC
[5] = Streptococcus pneumoniae, S. pneumoniae 05O173, c-ermB, mef, read-out: MIC
[6] = Streptococcus pneumoniae, S. pneumoniae 07P390, c-ermB, read-out: MIC

SMILES: CC[C@H]1OC(=O)[C@H](C)[C@@H](OC(=O)NCCCOCCC#Cc2ccc3c(=O)c(C(=O)O)cn(C4CC4)c3c2)[C@H](C)[C@@H](O[C@@H]2O[C@H](C)C[C@H](N(C)C)[C@H]2O)[C@](C)(OC)C[C@@H](C)C(=O)[C@H](C)[C@H]2NC(=O)O[C@@]21C (hydrate or solvate) [95c]
- melting point: 163.6 to 163.9 °C

SMILES: CC[C@H]1OC(=O)[C@H](C)[C@@H](OC(=O)NCCCCCCC#Cc2ccc3c(=O)c(C(=O)O)cn(C)c3c2)[C@H](C)[C@@H](O[C@@H]2O[C@H](C)C[C@H](N(C)C)[C@H]2O)[C@](C)(OC)C[C@@H](C)C(=O)[C@H](C)[C@H]2NC(=O)O[C@@]21C (hydrate or solvate) [MCX-219]
- melting point: 179.5 to 180.3 °C

SMILES: CCC1OC(=O)C(C)C(OC(=O)NCCCOCCC#Cc2ccc3c(=O)c(C(=O)O)cn(C4CC4)c3c2)C(C)C(OC2OC(C)CC(N(C)C)C2O)C(C)(OC)CC(C)C(=NOC)C(C)C2OC(=O)OC12C (stereo not drawn) (hydrate or solvate) [72c]
- melting point: 144.6 to 145.2 °C

SMILES: CC[C@H]1OC(=O)[C@H](C)[C@@H](O[C@H]2C[C@@](C)(OC)[C@@H](O)[C@H](C)O2)[C@H](C)[C@@H](O[C@@H]2O[C@H](C)C[C@H](N(C)C)[C@H]2O)[C@](C)(OC)C[C@@H](C)C(=O)[C@H](C)[C@@H](O)[C@]1(C)O [clarithromycin, reference compound]
- MIC (S. pyogenes; S. pyogenes 12-206, c-ermTR): 512 µg/mL (≈ 685 µM)
- MIC (S. pyogenes; S. pyogenes 21C303, Clinical, c-ermB): > 64 µg/mL
- MIC (S. pyogenes; S. pyogenes 21D184, Clinical, c-ermB): > 64 µg/mL
- MIC (S. pyogenes; S. pyogenes 21D199, Clinical, c-ermB): > 64 µg/mL
- MIC (S. pyogenes; S. pyogenes 21D200, Clinical, c-ermB): > 64 µg/mL
- MIC (S. pyogenes; S. pyogenes 21K003, Clinical, mef): 2 µg/mL (≈ 2.67 µM)
- MIC (S. pyogenes; S. pyogenes 21M063, Clinical, c-ermB): > 64 µg/mL
- MIC (S. pyogenes; S. pyogenes 21W186, Clinical, c-ermTR): > 64 µg/mL
- MIC (S. pyogenes; Streptococcus pyogenes, S. pyogenes 01-968, i-ermTR (Table S5), read-out: MIC): 4 µg/mL (≈ 5.35 µM)
- MIC (H. influenzae): 16 µg/mL (≈ 21.4 µM)
- MIC (M. catarrhalis): 0.25 µg/mL (≈ 0.334 µM)
- MIC (S. aureus; S. aureus 15B196, c-ermB): 512 µg/mL (≈ 685 µM)
- MIC (S. aureus; S. aureus ATCC29213): 0.25 µg/mL (≈ 0.334 µM)
- MIC (S. aureus; S. aureus PU32, Clinical, MRSA, i-ermA): 16 µg/mL (≈ 21.4 µM)
- MIC (S. pneumoniae; S. pneumoniae 07P390, c-ermB): 512 µg/mL (≈ 685 µM)
- MIC (S. pneumoniae; S. pneumoniae 21C315, Clinical, c-ermB): > 64 µg/mL
- MIC (S. pneumoniae; S. pneumoniae 21D016, Clinical, c-ermB, mef): > 64 µg/mL
- MIC (S. pneumoniae; S. pneumoniae 21D020, Clinical, c-ermB, mef): > 64 µg/mL
- MIC (S. pneumoniae; S. pneumoniae 21M277, Clinical, c-ermB): > 64 µg/mL
- MIC (S. pneumoniae; S. pneumoniae 21Q352, Clinical, i-MLSB): 16 µg/mL (≈ 21.4 µM)
- MIC (S. pneumoniae; S. pneumoniae 21Q353, Clinical, i-MLSB): 8 µg/mL (≈ 10.7 µM)
- MIC (S. pneumoniae; S. pneumoniae 21W257, Clinical, c-ermB, mef): > 64 µg/mL
- MIC (S. pneumoniae; S. pneumoniae 21X435, Clinical): 0.12 µg/mL (≈ 0.16 µM)
- MIC (S. pneumoniae; S. pneumoniae ATCC49619): 0.12 µg/mL (≈ 0.16 µM)
- MIC (S. pneumoniae; [2]): 8 µg/mL (≈ 10.7 µM)

SMILES: CC[C@H]1OC(=O)[C@H](C)[C@@H](OC(=O)NCCCOCCC#Cc2ccc3c(=O)c(C(=O)O)cn(C)c3c2)[C@H](C)[C@@H](O[C@@H]2O[C@H](C)C[C@H](N(C)C)[C@H]2O)[C@](C)(OC)C[C@@H](C)C(=O)[C@H](C)[C@H]2NC(=O)O[C@@]21C (hydrate or solvate) [MCX-190]
- melting point: 157.9 to 158.8 °C

SMILES: CC[C@H]1OC(=O)[C@H](C)[C@@H](OC(=O)NCCCNCCC#Cc2ccc3c(=O)c(C(=O)O)cn(C4CC4)c3c2)[C@H](C)[C@@H](O[C@@H]2O[C@H](C)C[C@H](N(C)C)[C@H]2O)[C@](C)(OC)C[C@@H](C)C(=O)[C@H](C)[C@H]2NC(=O)O[C@@]21C [98c]
- MIC (S. pyogenes; [3]): 2 µg/mL (≈ 2.01 µM)
- MIC (H. influenzae): 64 µg/mL (≈ 64.4 µM)
- melting point: 148.6 to 149.5 °C
- MIC (S. aureus; Staphylococcus aureus, S. aureus 15B196, c-ermB, read-out: MIC): 256 µg/mL (≈ 257 µM)
- MIC (S. aureus; Staphylococcus aureus, S. aureus PU32, i-ermA, read-out: MIC): 4 µg/mL (≈ 4.02 µM)
- MIC (S. pneumoniae; [4]): 0.5 µg/mL (≈ 0.503 µM)
- MIC (S. pneumoniae; [6]): 2 µg/mL (≈ 2.01 µM)
- MIC (S. pneumoniae; [2]): 0.5 µg/mL (≈ 0.503 µM)

The next lines start with the values.

- melting point: 172.1 to 173.5 °C
SMILES: CC[C@H]1OC(=O)[C@H](C)[C@@H](OC(=O)NCCCCOCCC#Cc2ccc3c(=O)c(C(=O)O)cn(C)c3c2)[C@H](C)[C@@H](O[C@@H]2O[C@H](C)C[C@H](N(C)C)[C@H]2O)[C@](C)(OC)C[C@@H](C)C(=O)[C@H](C)[C@H]2NC(=O)O[C@@]21C (hydrate or solvate) [96g]

- melting point: 141.1 to 142 °C
SMILES: CCOC(=O)c1cn(C)c2cc(C#CCCCCCCNC(=O)O[C@H]3[C@H](C)[C@@H](O[C@@H]4O[C@H](C)C[C@H](N(C)C)[C@H]4O)[C@](C)(OC)C[C@@H](C)C(=O)[C@H](C)[C@H]4NC(=O)O[C@]4(C)[C@@H](CC)OC(=O)[C@@H]3C)ccc2c1=O (hydrate or solvate) [88h]

- MIC (S. pyogenes; [3]): 2 µg/mL (≈ 2.01 µM)
- MIC (H. influenzae): 32 µg/mL (≈ 32.2 µM)
- Cmax ([1]; male SD rats, i.v. 5 mg/kg): 2650 ± 250 ng/mL
- MRT ([1]; male SD rats, i.v. 5 mg/kg): 1.64 ± 0.665 h
- Tmax ([1]; male SD rats, i.v. 5 mg/kg): 4.8 min
- half-life ([1]; male SD rats, i.v. 5 mg/kg): 2.63 ± 1.3 h
- AUC(0-inf) ([1]; male SD rats, i.v. 5 mg/kg, mean ± SD, n 3): 1790 ± 90 ng·h/mL
- AUC(0-t) ([1]; male SD rats, i.v. 5 mg/kg, read-out: AUC0-24): 1760 ± 100 ng·h/mL
- clearance ([1]; male, 5 mg/kg): 46.5 mL/min/kg
- MIC (M. catarrhalis): 4 µg/mL (≈ 4.02 µM)
- MIC (S. pneumoniae; [4]): ≤ 0.008 µg/mL
- MIC (S. pneumoniae; [5]): 64 µg/mL (≈ 64.3 µM)
- MIC (S. pneumoniae; [6]): 0.5 µg/mL (≈ 0.502 µM)
SMILES: CCOC(=O)c1cn(C)c2cc(C#CCCCCCCNC(=O)O[C@H]3[C@H](C)[C@@H](O[C@@H]4O[C@H](C)C[C@H](N(C)C)[C@H]4O)[C@](C)(OC)C[C@@H](C)C(=O)[C@H](C)[C@H]4NC(=O)O[C@]4(C)[C@@H](CC)OC(=O)[C@@H]3C)ccc2c1=O [88h]

- melting point: 162.9 to 166 °C
SMILES: CC[C@H]1OC(=O)[C@H](C)[C@@H](OC(=O)NCCCCCCC#Cc2ccc3c(=O)c(C(=O)O)c[nH]c3c2)[C@H](C)[C@@H](O[C@@H]2O[C@H](C)C[C@H](N(C)C)[C@H]2O)[C@](C)(OC)C[C@@H](C)C(=O)[C@H](C)[C@H]2NC(=O)O[C@@]21C (hydrate or solvate) [88i]

- melting point: 163.7 to 164.9 °C
SMILES: CC[C@H]1OC(=O)[C@H](C)[C@@H](OC(=O)NCCCOCCC#Cc2ccc3c(=O)c(C(=O)O)c[nH]c3c2)[C@H](C)[C@@H](O[C@@H]2O[C@H](C)C[C@H](N(C)C)[C@H]2O)[C@](C)(OC)C[C@@H](C)C(=O)[C@H](C)[C@H]2NC(=O)O[C@@]21C (hydrate or solvate) [95i]

- MIC (S. pyogenes; [3]): 1 µg/mL (≈ 1.02 µM)
- MIC (H. influenzae): 8 µg/mL (≈ 8.15 µM)
- MIC (M. catarrhalis): 1 µg/mL (≈ 1.02 µM)
- MIC (S. pneumoniae; [4]): ≤ 0.008 µg/mL
- MIC (S. pneumoniae; [5]): 16 µg/mL (≈ 16.3 µM)
- MIC (S. pneumoniae; [6]): 0.25 µg/mL (≈ 0.255 µM)
SMILES: CC[C@H]1OC(=O)[C@H](C)[C@@H](OC(=O)NCCCCCCCC#Cc2ccc3c(=O)c(C(=O)O)cn(C)c3c2)[C@H](C)[C@@H](O[C@@H]2O[C@H](C)C[C@H](N(C)C)[C@H]2O)[C@](C)(OC)C[C@@H](C)C(=O)[C@H](C)[C@H]2NC(=O)O[C@@]21C [89g]
